Test results taken from paper PMC2360244 (British Journal of Cancer, 2007).
Where two headings read alike, the source gives them in different places.

Key:
[1] = test system: HCT116 colon carcinoma xenograft; experiment: HCT116 colon xenograft, tumour growth; assay type: in vivo, mice; conditions: median tumour size at end of study
Experimental: (§1) All mice used in the in vivo studies were athymic male NMRI nu/nu mice purchased from Janvier (France) and were treated according to the ethical guidelines prescribed by UKCCCR. A2780 ovarian, HCT116 colon and H460 lung carcinoma cells were injected s.c. (10^7 cells per 200 μl) into the inguinal region of Nude mice. […] Tumour size was determined using caliper measurement and tumour volume was determined by using the formula: TV=(a^2 × b)/2 (in which a represents the width and b the length).
Mice were treated orally once daily (q.d.) between day 4 and 28 (A2780) or between day 4 and 32 (H460 and HCT116). (A) A2780 ovarian tumours were measured at least twice a week throughout the study, and results are represented as the median tumour size, expressed in mm^3, of each individual group (n=10). (B) Mice were treated orally q.d. at the indicated doses. Results are represented as the treated/control values (%) of the median tumour size (n=10) at the end of the study.

[2] = test system: A2780 ovarian carcinoma cells; experiment: A2780 tumour cell proliferation, MTT colorimetric assay; assay type: cell-based, human; conditions: Homo sapiens, A2780, 96 h, 4 days, mean±s.d.
Experimental: (§2) Control cells were treated with the combined respective vehicle.

[3] = test system: lung, breast, colon, prostate and ovarian tumour cell lines; experiment: cells; conditions: Homo sapiens, 96 h, read-out: IC50 values, cell proliferation of solid tumour cell lines (range over panel), lung, breast, colon, prostate and ovarian tumour cell lines; 4-day incubation
Experimental: (§5) The effect of HDAC inhibitors on cell proliferation was measured using an MTT (3-(4,5-dimethyl-2-thiazolyl)-2,5-diphenyl-2H-tetrazolium bromide)-based assay (Serva, Heidelberg, Germany). Cells were seeded in Falcon or NUNC 96-well culture plates (Life Technologies, Merelbeke, Belgium) in 100 μl culture medium and allowed to adhere to plastic for 18–48 h. Test compounds were dissolved in DMSO and further dilutions were made in culture medium, with final concentrations of DMSO never exceeding 0.1% (v v^−1), and incubated for 4 days. Proliferation of NSCLC was assessed using Alamar Blue-based assay. Cells were seeded in COSTAR 384-well culture plates in 45 μl culture medium and allowed to adhere to plastic for 24 h. Alamar blue was added after 72 h, with the exception of HCC-15, HCC-44, NCI-H2122 and NCI-H460, where Alamar blue was added after 90 h and OD values were measured at 4 days following compound exposure. Data are presented as mean±s.d. of three independent experiments.

[4] = test system: HDAC isotypes in partially purified extract from rat liver (MAL, unselective); conditions: read-out: Liver extract MAL unselective IC50, substrate MAL
Experimental: After centrifugation, the cleared extract was used for immunoprecipitation of HDAC1. […] Incubation was performed for 45 min at 37°C (immunoprecipitates) or 30 min at room temperature (HeLa nuclear extract). Before addition of substrate, HDAC inhibitors were added at increasing concentrations and preincubated for 10 min at room temperature. After incubation, the reaction was quenched with 35 μl stop buffer (1 M HCl and 0.4 M acetic acid). Released [^3H]acetic acid was extracted with 800 μl ethyl acetate and quantified by scintillation counting. Equal amounts of HDAC1 were immunoprecipitated as indicated by western blot analysis. Histone deacetylase 1 activity results are presented as mean±s.d. of three independent experiments on a single lysate. […] Finally, we measured the activities of different HDAC isotypes present in partially purified extract from rat liver using the fluorescent HDAC substrates MAL (unselective), B61 (selective for HDAC1, and to some extent also converted by HDAC3) and B12 (selective for HDAC6).

p21waf1,cip1 promoter = p21waf1,cip1 promoter activity in vivo, A2780-p21waf1,cip1ZsGreen xenograft; parameters: species or system mice; conditions: 40 mpk p.o. once, 24 h after dosing
Experimental: To generate an HDAC inhibitor-responsive p21^waf1,cip1 promoter construct, the –1300 to +88 region of the p21^waf1,cip1 promoter was cloned into pGL3-basic-ZsGreen and stably transfected into A2780 ovarian carcinoma cells ([Belien et al, 2006]). For in vivo analysis of p21^waf1,cip1 promoter activity, A2780-p21^waf1,cip1ZsGreen cells were injected s.c. (10^7 cells per 200 μl) into the inguinal region of Nude mice and caliper-measurable tumours were obtained after 12 days. […] Tumours were collected using transcardial perfusion fixation with 4% paraformaldehyde. Cryosections of 10-μm thickness were mounted on glass slides and air-dried for 30 min at room temperature. Bodipy 558/568-phalloidin staining was performed on whole mounts to visualise actin (background cell staining). ZsGreen fluorescence was evaluated with an Axioplan 2 (Zeiss, Germany) equipped with Epiplan-Neofluar objectives and an Axiocam camera. CD-31 (CY3) immunofluorescent labelling was performed on whole mounts to visualise the endothelium of blood vessels.
(A) Tumours were harvested 4 h after the last dose. Nuclei are stained with Hoechst, while (CY3) immunofluorescent labelling was performed to visualise acetylated H3. Representative sections from […] independent mice are shown. (B) and (C) Tumours were collected after 24 h using transcardial perfusion fixation with 4% paraformaldehyde. […]

[5] = test system: primary human mammary epithelial cells (HMEC); experiment: cells
Experimental: as §2

[6] = test system: ALL, AML, CLL, CML, lymphoma and myeloma tumour cells; experiment: cells; conditions: Homo sapiens, read-out: IC50 values, proliferation of haematological tumour cells (range over panel)
Experimental: as §5

[7] = test system: tubulin acetylation and Hsp70 in A2780 ovarian carcinoma cells; experiment: Western blot of acetylated tubulin and Hsp70 in A2780 cells (HDAC6 readout); assay type: cell-based, human; conditions: 24 h, western blot
Experimental: (§3) Human A2780 ovarian carcinoma cells were incubated with the indicated concentrations of HDAC inhibitors. Total cell lysates were prepared and analysed by SDS–PAGE. […] To control for equal loading, blots were stripped and re-probed with mouse monoclonal antiactin IgM (Ab-1, Oncogene Research products, Merck, Darmstadt, Germany). […] Protein–antibody complexes were then visualised by chemiluminescence (Pierce Chemical Co., Perbioscience, Erembodegem, Belgium) or fluorescence (Odyssey) according to manufacturer's instructions.
(§4) Total cell lysates were prepared and analysed by SDS–PAGE. Levels of acetylated H3 and tubulin, and of total levels of H3 and tubulin and of p21^waf1, cip1 and Hsp70 and c-raf protein, were detected using rabbit polyclonal and mouse monoclonal antibodies, followed by ECL detection as indicated in the Methods section. To control for equal loading, blots were stripped and re-probed with antibodies against actin and the nuclear protein Lamin B1. A representative experiment out of three is shown.

[8] = Tolerability of once-daily oral dosing for 28 days; assay type: in vivo; conditions: up to 40 mpk p.o., immunodeficient mice
Experimental: as §1

[9] = test system: A2780 ovarian carcinoma cells; experiment: Annexin V staining (apoptosis), FACS; assay type: cell-based, human; conditions: 48 h, concentration-dependent
Experimental: Human A2780 ovarian carcinoma cells were seeded at 2 × 10^6 cells per 75-cm^2 flask and, after 24 h, incubated with the indicated concentration of test compound for 48 h. The cells were subsequently collected, centrifuged and washed with PBS. The cell pellets were stained with Annexin-V-FITC antibody and propidium iodide with a kit from PharMingen, BD Biosciences, Erembodegem, Belgium (cat 66121E).
Cells were stained with Annexin V (Pharmingen) and propidium iodide, and analysed by FACS. […] Membrane-damaged cells were defined as both Annexin V- and propidium iodide-positive. Shown are mean values±variation for two independent experiments. […] Green asterisks represent mitotic cells, while red arrows point at specific DNA fragmentation. (B) Rat Aortic Ring Assays were performed as described in the Methods section.

[10] = test system: H3 acetylation and p21waf1,cip1 in A2780 ovarian carcinoma cells; experiment: Western blot of acetylated H3 and p21waf1,cip1 in A2780 cells (class I HDAC readout); assay type: cell-based, human
Experimental: as §3, §4

O=C(NO)c1cnc(N2CCN(S(=O)(=O)c3ccc4ccccc4c3)CC2)nc1 [R306465]
T/C values (%) HCT116 colon ([1]; 10 mpk p.o. q.d. day 4 to 32): 76%
T/C values (%) HCT116 colon ([1]; 20 mpk p.o. q.d. day 4 to 32): 75%
T/C values (%) HCT116 colon ([1]; 30 mpk p.o. q.d. day 4 to 32): 57%
T/C values (%) HCT116 colon ([1]; 40 mpk p.o. q.d. day 4 to 32): 34%
IC50 [2]: 39 ± 17 nM
IC50 [3]: 30 to 300 nM
IC50 [4]: 886 ± 85 nM
p21waf1,cip1 promoter activation (ZsGreen fluorescence) in tumour sections (p21waf1,cip1 promoter): large number of fluorescing cells
IC50 ([5]; read-out: IC50, primary HMEC proliferation): 32 ± 9.7 nM
IC50 ([5]; read-out: IC50, quiescent non-proliferative HMEC cells): 7820 ± 435 nM
IC50 [6]: 15 to 486 nM
concentration at which tubulin acetylation and Hsp70 levels increase [7]: 1 µM
tolerability [8]: well-tolerated
percentage of cells positive for Annexin V [9]: significant increase
concentration at which H3 acetylation is induced ([10]; 24 h, western blot): 100 nM
concentration at which p21waf1,cip1 is induced ([10]; 24 h, western blot): 100 nM
cellular potency for HDAC1 vs HDAC6 (higher for HDAC1) ([10]; H3 acetylation vs tubulin acetylation): 10 fold
